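A five-concentration, 48-hour dose response in 96-well plates underlies each endpoint, interpolated linearly between surrounding concentrations. TGI: total growth inhibition.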 Where a SMILES comes first, the peptide text is derived from it. The star is where a group is joined. Boc = CC(C)(C)OC(=O)*
What was measured:
Test in all cases: inhibition of tumour cell growth, NCI panel, 48 h
ACHN renal = test system: ACHN renal
NCI-H522 lung = test system: NCI-H522 lung
COLO 205 colon = test system: COLO 205 colon
DU-145 prostate = test system: DU-145 prostate
NCI-H23 lung = test system: NCI-H23 lung
SK-OV-3 ovarian = test system: SK-OV-3 ovarian
A498 renal = test system: A498 renal
NCI-H226 lung = test system: NCI-H226 lung
HOP-62 NSCLC = test system: HOP-62 NSCLC
HCT-15 colon = test system: HCT-15 colon
HT29 colon = test system: HT29 colon
K-562 leukemia = test system: K-562 leukemia
SK-MEL-5 melanoma = test system: SK-MEL-5 melanoma
SNB-19 CNS = test system: SNB-19 CNS
MCF7 breast = test system: MCF7 breast
SK-MEL-28 melanoma = test system: SK-MEL-28 melanoma
A549 NSCLC = test system: A549 NSCLC
UACC-257 melanoma = test system: UACC-257 melanoma
HOP-92 NSCLC = test system: HOP-92 NSCLC
BT-549 breast = test system: BT-549 breast
MDA-MB-435 = test system: MDA-MB-435
SW-620 colon = test system: SW-620 colon
UACC-62 melanoma = test system: UACC-62 melanoma
EKVX NSCLC = test system: EKVX NSCLC
HL-60(TB) leukemia = test system: HL-60(TB) leukemia
786-0 renal = test system: 786-0 renal
LOX IMVI melanoma = test system: LOX IMVI melanoma
HCT-116 colon = test system: HCT-116 colon
HCC-2998 colon = test system: HCC-2998 colon
MDA-MB-231 breast = test system: MDA-MB-231 breast
T-47D breast = test system: T-47D breast
OVCAR-3 ovarian = test system: OVCAR-3 ovarian
IGROV1 ovarian = test system: IGROV1 ovarian
RXF 393 renal = test system: RXF 393 renal
SN12C renal = test system: SN12C renal
SK-MEL-2 melanoma = test system: SK-MEL-2 melanoma
SF-539 CNS = test system: SF-539 CNS
M14 melanoma = test system: M14 melanoma
OVCAR-8 ovarian = test system: OVCAR-8 ovarian
TK-10 renal = test system: TK-10 renal
OVCAR-4 ovarian = test system: OVCAR-4 ovarian
U251 CNS = test system: U251 CNS
OVCAR-5 ovarian = test system: OVCAR-5 ovarian
NCI-H460 lung = test system: NCI-H460 lung
UO-31 renal = test system: UO-31 renal
CAKI-1 renal = test system: CAKI-1 renal
MOLT-4 leukemia = test system: MOLT-4 leukemia
PC-3 prostate = test system: PC-3 prostate
HS 578T breast = test system: HS 578T breast
SF-295 CNS = test system: SF-295 CNS
NCI/ADR-RES ovarian = test system: NCI/ADR-RES ovarian
SF-268 CNS = test system: SF-268 CNS
MDA-N = test system: MDA-N
KM12 colon = test system: KM12 colon
MALME-3M melanoma = test system: MALME-3M melanoma
SNB-75 CNS = test system: SNB-75 CNS
RPMI-8226 leukemia = test system: RPMI-8226 leukemia
CCRF-CEM leukemia = test system: CCRF-CEM leukemia
SR leukemia = test system: SR leukemia

Measured: TGI

O=C1NNC=Nc2ccc(cc2)S(=O)(=O)c2ccc(cc2)N=CNNC1=O
not listed: MALME-3M melanoma | SNB-75 CNS | RPMI-8226 leukemia | CCRF-CEM leukemia | SR leukemia
> 100 µM: all other assays above

COC(=O)CNC(=O)C(Cc1ccccc1)NC(=O)C(CCSC)NC(=O)C(Cc1ccc(O)cc1)NC(=O)OC(C)(C)C (stereo not given) (Boc-YMFG-OMe; configuration not given here)
38.2 µM: UACC-257 melanoma
43 µM: NCI-H522 lung
33.1 µM: SK-MEL-2 melanoma
64.1 µM: HCC-2998 colon
74.1 µM: HOP-92 NSCLC
32.7 µM: LOX IMVI melanoma
50.2 µM: RPMI-8226 leukemia
34.8 µM: SK-MEL-28 melanoma
38.9 µM: OVCAR-3 ovarian | MOLT-4 leukemia
52.8 µM: MDA-MB-231 breast
87.7 µM: SF-268 CNS
not listed: EKVX NSCLC | CCRF-CEM leukemia | SR leukemia
> 100 µM: all other assays above

Cc1ccc(C(=O)Nc2ccc(CP(=O)(O)O)cc2CP(=O)(O)O)cc1NC(=O)c1cccc(N)c1
not listed: SNB-19 CNS | HOP-92 NSCLC | SR leukemia
> 100 µM: all other assays above

O=C(CC(=O)n1nc(-c2ccccc2)c(N=Nc2ccccc2C(=O)O)c1-c1ccccc1)Nc1ccc(Cl)cc1
47.8 µM: UO-31 renal
81.8 µM: SNB-19 CNS
42.2 µM: HOP-92 NSCLC
80.8 µM: RXF 393 renal
40.9 µM: HL-60(TB) leukemia
42 µM: SR leukemia
93.9 µM: NCI-H23 lung
27.9 µM: MOLT-4 leukemia
83.1 µM: SNB-75 CNS
93 µM: BT-549 breast
not listed: NCI-H522 lung | DU-145 prostate | SK-OV-3 ovarian | A498 renal | MDA-MB-435 | LOX IMVI melanoma | OVCAR-3 ovarian | SN12C renal | SF-539 CNS | OVCAR-4 ovarian | CAKI-1 renal | SF-295 CNS | NCI/ADR-RES ovarian | SF-268 CNS | CCRF-CEM leukemia
> 100 µM: all other assays above
